From ChEMBL document CHEMBL1150918, “Phospholipase Cgamma1 inhibitory principles from the sarcotestas of Ginkgo biloba” (J Nat Prod, 1998)
Converted amounts (≈) assume the structure as drawn.

Experiments:
HT1197 = experiment: Growth inhibition of human HT1197 cells after 2 days by SRB assay; type: functional, cell-based; conditions: HT1197, 48 h
A549 = experiment: Growth inhibition of human A549 cells after 2 days by SRB assay; type: functional, cell-based; conditions: A549, 48 h
[1] = biological target: T1, 1-phosphatidylinositol 4,5-bisphosphate phosphodiesterase gamma-1 (Bos taurus, UniProt P08487); experiment: Inhibition of bovine brain PI-PLCgamma1
T1 sequence (P08487 whole entry): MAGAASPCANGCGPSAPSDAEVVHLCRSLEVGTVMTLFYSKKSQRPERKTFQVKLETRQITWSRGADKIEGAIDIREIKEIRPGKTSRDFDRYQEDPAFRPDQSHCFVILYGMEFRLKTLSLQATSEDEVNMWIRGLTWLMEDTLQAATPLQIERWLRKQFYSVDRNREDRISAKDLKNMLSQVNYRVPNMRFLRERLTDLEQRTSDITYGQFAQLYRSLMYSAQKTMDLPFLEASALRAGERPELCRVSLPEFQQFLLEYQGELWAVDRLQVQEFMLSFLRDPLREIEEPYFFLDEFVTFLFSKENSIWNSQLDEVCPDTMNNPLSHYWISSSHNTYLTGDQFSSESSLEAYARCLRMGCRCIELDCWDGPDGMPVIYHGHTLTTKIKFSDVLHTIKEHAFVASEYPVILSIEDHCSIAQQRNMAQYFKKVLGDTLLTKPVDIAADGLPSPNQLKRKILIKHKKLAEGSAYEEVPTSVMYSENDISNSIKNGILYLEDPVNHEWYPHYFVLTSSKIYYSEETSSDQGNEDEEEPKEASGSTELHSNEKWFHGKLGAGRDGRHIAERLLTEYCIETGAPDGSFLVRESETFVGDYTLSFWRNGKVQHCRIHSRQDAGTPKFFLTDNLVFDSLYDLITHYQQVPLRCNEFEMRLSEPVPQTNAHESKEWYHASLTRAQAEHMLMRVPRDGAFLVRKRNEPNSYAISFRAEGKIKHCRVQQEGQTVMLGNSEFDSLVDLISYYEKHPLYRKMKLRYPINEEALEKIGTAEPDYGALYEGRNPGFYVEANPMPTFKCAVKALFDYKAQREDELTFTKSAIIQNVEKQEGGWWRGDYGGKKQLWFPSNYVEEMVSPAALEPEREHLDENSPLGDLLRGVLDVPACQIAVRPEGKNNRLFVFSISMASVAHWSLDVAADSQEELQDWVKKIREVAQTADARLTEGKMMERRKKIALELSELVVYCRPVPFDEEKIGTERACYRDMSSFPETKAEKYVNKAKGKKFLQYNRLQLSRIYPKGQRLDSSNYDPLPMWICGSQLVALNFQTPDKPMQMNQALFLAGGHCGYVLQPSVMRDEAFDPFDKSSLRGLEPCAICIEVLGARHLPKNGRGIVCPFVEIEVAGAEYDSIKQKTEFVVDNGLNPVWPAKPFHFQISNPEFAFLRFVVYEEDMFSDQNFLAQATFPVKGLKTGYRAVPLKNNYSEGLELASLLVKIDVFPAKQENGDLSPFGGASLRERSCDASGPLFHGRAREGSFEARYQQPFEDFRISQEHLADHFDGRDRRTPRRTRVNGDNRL

MCF7 = experiment: Growth inhibition of human MCF7 cells after 2 days by SRB assay; type: functional, cell-based; conditions: MCF7, 48 h
HCT-15 = experiment: Growth inhibition of human HCT15 cells after 2 days by SRB assay; type: functional, cell-based; conditions: HCT-15, 48 h
SK-OV-3 = experiment: Growth inhibition of human SKOV3 cells after 2 days by SRB assay; type: functional, cell-based; conditions: SK-OV-3, 48 h
[2] = Growth inhibition of human CCD-18Co cells after 2 days by SRB assay; type: cell-based; conditions: 48 h
[3] = biological target: T2, 1-phosphatidylinositol 4,5-bisphosphate phosphodiesterase gamma-1 (Rattus norvegicus, UniProt P10686); experiment: Inhibition of rat brain PI-PLCgamma1
T2 sequence (P10686 whole entry): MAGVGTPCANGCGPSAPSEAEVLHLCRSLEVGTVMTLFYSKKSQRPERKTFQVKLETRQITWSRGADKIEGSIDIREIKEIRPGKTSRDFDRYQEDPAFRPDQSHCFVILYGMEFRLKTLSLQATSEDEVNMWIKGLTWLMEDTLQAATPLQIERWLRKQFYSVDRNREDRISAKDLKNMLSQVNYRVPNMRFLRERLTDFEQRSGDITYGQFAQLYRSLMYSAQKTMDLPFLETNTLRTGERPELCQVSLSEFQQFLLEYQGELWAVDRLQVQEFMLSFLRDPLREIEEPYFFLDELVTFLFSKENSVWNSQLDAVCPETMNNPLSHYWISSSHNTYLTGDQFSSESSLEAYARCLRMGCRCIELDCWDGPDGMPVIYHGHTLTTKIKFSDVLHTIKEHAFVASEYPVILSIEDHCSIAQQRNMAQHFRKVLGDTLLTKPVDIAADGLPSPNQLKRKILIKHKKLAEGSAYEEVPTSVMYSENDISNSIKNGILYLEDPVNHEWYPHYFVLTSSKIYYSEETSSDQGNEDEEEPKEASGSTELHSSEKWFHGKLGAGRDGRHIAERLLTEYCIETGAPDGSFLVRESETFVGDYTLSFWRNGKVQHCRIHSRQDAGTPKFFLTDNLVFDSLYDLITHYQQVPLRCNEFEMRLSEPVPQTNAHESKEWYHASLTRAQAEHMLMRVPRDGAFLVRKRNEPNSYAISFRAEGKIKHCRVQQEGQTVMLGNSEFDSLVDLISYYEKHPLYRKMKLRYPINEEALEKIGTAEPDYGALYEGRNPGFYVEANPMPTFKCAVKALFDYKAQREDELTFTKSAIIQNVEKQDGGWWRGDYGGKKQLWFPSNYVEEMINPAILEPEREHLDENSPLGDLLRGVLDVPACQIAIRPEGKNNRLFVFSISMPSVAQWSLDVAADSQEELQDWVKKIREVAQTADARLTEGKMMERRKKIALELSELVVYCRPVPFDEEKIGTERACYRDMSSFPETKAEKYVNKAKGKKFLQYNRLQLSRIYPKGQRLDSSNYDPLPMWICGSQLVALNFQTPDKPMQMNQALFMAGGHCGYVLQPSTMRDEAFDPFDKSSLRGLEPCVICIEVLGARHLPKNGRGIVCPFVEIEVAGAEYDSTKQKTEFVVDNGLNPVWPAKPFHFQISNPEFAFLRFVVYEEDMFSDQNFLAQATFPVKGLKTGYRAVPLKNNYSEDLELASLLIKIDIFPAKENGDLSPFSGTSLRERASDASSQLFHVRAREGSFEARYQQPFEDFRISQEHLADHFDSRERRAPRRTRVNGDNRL

[4] = Inhibition of pig brain PI-PLCgamma1; parameters: species or system Sus scrofa

Compound | IC50 (HT1197) [µg/mL] | IC50 (A549) [µg/mL] | IC50 [1] [µM] | IC50 (MCF7) [µg/mL] | IC50 (HCT-15) [µg/mL] | other results
CCCCCCCCCCCCCCCc1cccc(O)c1 | 41.8 (≈ 137 µM) | 11.9 (≈ 39.1 µM) | 58 | 8.71 (≈ 28.6 µM) | 31.9 (≈ 105 µM) | –
O=c1cc(-c2ccc(O)c(-c3c(O)cc(O)c4c(=O)cc(-c5ccc(O)cc5)oc34)c2)oc2cc(O)cc(O)c12 [AMENTOFLAVONE] | – | – | 29 | – | – | –
CCCCCC/C=C\CCCCCCCCCc1cccc(O)c1C(=O)O [GINKGOLIC ACID 17:1] | 28.1 (≈ 75.1 µM) | 29.2 (≈ 78 µM) | 2.22 | 5.06 (≈ 13.5 µM) | 8.39 (≈ 22.4 µM) | IC50 (SK-OV-3): > 50 µg/mL
Cc1cc(O)cc(O)c1 [ORCINOL] | – | – | > 2010 | – | – | –
CCCCCCCCCCCCCc1cc(O)cc(O)c1 | 2.2 (≈ 7.52 µM) | > 50 | 72.3 | 1.91 (≈ 6.53 µM) | 15.3 (≈ 52.4 µM) | IC50 [2]: > 100 µg/mL; IC50 (SK-OV-3): > 50 µg/mL
CCCCCC/C=C\CCCCCCCc1cc(OC(C)=O)cc(OC(C)=O)c1 | – | – | > 621 | – | – | –
O=C(O)c1ccccc1O [SALICYLIC ACID] | – | – | 873 | – | – | –
CCCCCC/C=C\CCCCCCCCCc1cccc(O)c1 | 20.8 (≈ 63 µM) | 11.8 (≈ 35.7 µM) | 9.73 | 7.19 (≈ 21.8 µM) | 32.9 (≈ 99.5 µM) | IC50 [2]: 66.4 µg/mL (≈ 201 µM)
CCCCCC/C=C\CCCCCCCCCc1cc(O)cc(O)c1 | – | – | 30.6 | – | – | –
Cc1cccc(O)c1 [METACRESOL] | – | – | > 2310 | – | – | –
CCCCCCCCCCCCCc1cccc(O)c1C(=O)O [GINKGOLIC ACID 13:0] | 44.6 (≈ 139 µM) | > 50 | 16.3 | 22.7 (≈ 70.7 µM) | > 50 | IC50 [2]: 59.1 µg/mL (≈ 184 µM); IC50 (SK-OV-3): 20.4 µg/mL (≈ 63.7 µM)
CCCCCCCCCCCCCc1cccc(O)c1 | 14.6 (≈ 52.7 µM) | 25.9 (≈ 93.7 µM) | 57.8 | 7.04 (≈ 25.5 µM) | 29.7 (≈ 107 µM) | IC50 [2]: 73.2 µg/mL (≈ 265 µM); IC50 (SK-OV-3): > 50 µg/mL
CCCCCC/C=C\CCCCCCCc1cccc(OC(C)=O)c1 | – | – | > 726 | – | – | –
CC(=O)c1cc2c(=O)c3c(C(=O)O)c(O)c(O)cc3oc2c(C(C)=O)c1-c1coc2cc(O)c(O)c(C(=O)O)c2c1=O [VINAXANTHONE] | – | – | – | – | – | IC50 [3]: 5.4 µM
CCCCCC/C=C\CCCCCCCc1cccc(OC(C)=O)c1C(=O)OC | – | – | > 621 | – | – | –
CC(=O)O[C@@H]1[C@H](O[C@H](CO)[C@H](O)[C@@H](O)[C@@H](OC(C)=O)C(=O)O[C@H](C)CCCCCCCCCCCCCCCc2cccc(O)c2C(=O)O)O[C@H](CO)[C@@H](O)[C@@H]1O [CALOPOROSIDE] | – | – | – | – | – | IC50 [4]: 18 µM
CCCCCC/C=C\CCCCCCCc1cccc(O)c1C(=O)O [GINGKOLIC ACID] | 46.3 (≈ 134 µM) | 31.3 (≈ 90.3 µM) | 5.66 | 6.44 (≈ 18.6 µM) | 12.7 (≈ 36.7 µM) | IC50 [2]: 97.1 µg/mL (≈ 280 µM); IC50 (SK-OV-3): > 50 µg/mL
CCCCCC/C=C\CCCCCCCc1cccc(O)c1C(=O)OC | – | – | > 693 | – | – | –
C[C@@H]1CC[C@H]2[C@]13CC[C@@]1(C)O[C@]2(C)[C@@H](NCCCCN(C)CCCN(C)C)[C@H]1C3 [HISPIDOSPERMIDIN] | – | – | – | – | – | IC50 [3]: 16 µM
